Measurements reported in ChEMBL document CHEMBL4507261, “Data for DCP probe A-192621” (2021).

Assays:
[1] = target: Serine/threonine-protein kinase TAO1 (Homo sapiens) (UniProt Q7L7X3); conditions: Compound concentration 1000.0 nM
[2] = tested on: Receptor-type tyrosine-protein kinase FLT3 (Homo sapiens), P36888 [D835V]; conditions: Compound concentration 1000.0 nM
[3] = target: Glycogen synthase kinase-3 alpha (Homo sapiens) (UniProt P49840); conditions: Compound concentration 1000.0 nM
[4] = target: Serine/threonine-protein kinase Nek11 (Homo sapiens) (UniProt Q8NG66); conditions: Compound concentration 1000.0 nM
[5] = tested on: ALK tyrosine kinase receptor (Homo sapiens), Q9UM73 [C1156Y]; conditions: Compound concentration 1000.0 nM
[6] = target: MAP kinase-activated protein kinase 5 (Homo sapiens) (UniProt Q8IW41); conditions: Compound concentration 1000.0 nM
[7] = target: 5-hydroxytryptamine receptor 4 (Homo sapiens) (UniProt Q13639); test: 5-HT4 e (h) Eurofins-Cerep binding assay; parameters: ligand concentration 0.3 nM; conditions: filed as antagonist, Compound concentration 10.0 uM
[8] = target: ALK tyrosine kinase receptor (Homo sapiens) (UniProt Q9UM73); conditions: Compound concentration 1000.0 nM
[9] = target: Tyrosine-protein kinase Fes/Fps (Homo sapiens) (UniProt P07332); conditions: Compound concentration 1000.0 nM
[10] = target: T1, Alpha-2B adrenergic receptor (Homo sapiens) (UniProt P18089); test: Alpha2B (h) Eurofins-Cerep binding assay; parameters: ligand concentration 2.5 nM; conditions: filed as antagonist, Compound concentration 10.0 uM
T1 sequence (whole entry): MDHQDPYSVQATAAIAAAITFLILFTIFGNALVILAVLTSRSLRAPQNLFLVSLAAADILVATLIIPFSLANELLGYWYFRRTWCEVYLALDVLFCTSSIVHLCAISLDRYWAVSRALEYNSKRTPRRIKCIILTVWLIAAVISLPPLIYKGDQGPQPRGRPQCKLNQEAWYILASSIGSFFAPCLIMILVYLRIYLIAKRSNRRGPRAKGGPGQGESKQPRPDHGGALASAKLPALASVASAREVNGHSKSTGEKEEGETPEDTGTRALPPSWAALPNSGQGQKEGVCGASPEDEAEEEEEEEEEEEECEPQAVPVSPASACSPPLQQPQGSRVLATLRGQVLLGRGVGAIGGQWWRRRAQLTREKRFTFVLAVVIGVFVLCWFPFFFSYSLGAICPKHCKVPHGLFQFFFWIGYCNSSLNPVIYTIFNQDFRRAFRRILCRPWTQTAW

[11] = target: P2X receptor (Rattus norvegicus) (UniProt P51579+P49653+P51578+Q64663+P47824+P51577+P49654); test: P2X Eurofins-Cerep binding assay; format: protein assay; parameters: ligand concentration 3 nM; conditions: filed as agonist, Compound concentration 10.0 uM
[12] = target: Insulin receptor (Homo sapiens) (UniProt P06213); conditions: Compound concentration 1000.0 nM
[13] = target: Casein kinase II subunit alpha' (Homo sapiens) (UniProt P19784); conditions: Compound concentration 1000.0 nM
[14] = target: Cyclin-dependent kinase-like 3 (Homo sapiens) (UniProt Q8IVW4); conditions: Compound concentration 1000.0 nM
[15] = target: Calcium/calmodulin-dependent protein kinase kinase 1 (Homo sapiens) (UniProt Q8N5S9); conditions: Compound concentration 1000.0 nM
[16] = target: Mitogen-activated protein kinase kinase kinase 20 (Homo sapiens) (UniProt Q9NYL2); conditions: Compound concentration 1000.0 nM
[17] = target: Dual specificity tyrosine-phosphorylation-regulated kinase 1A (Homo sapiens) (UniProt Q13627); conditions: Compound concentration 1000.0 nM
[18] = target: Serine/threonine-protein kinase RIO2 (Homo sapiens) (UniProt Q9BVS4); conditions: Compound concentration 1000.0 nM
[19] = target: Serine/threonine-protein kinase Sgk3 (Homo sapiens) (UniProt Q96BR1); conditions: Compound concentration 1000.0 nM
[20] = target: Casein kinase I isoform alpha (Homo sapiens) (UniProt P48729); conditions: Compound concentration 1000.0 nM
[21] = target: Microtubule-associated serine/threonine-protein kinase 1 (Homo sapiens) (UniProt Q9Y2H9); conditions: Compound concentration 1000.0 nM
[22] = target: voltage-gated L-type Ca2+ channel (dihydropyridine site) (Rattus norvegicus, UniProt P22002+P27732+Q02485); test: Ca2+ channel (L, dihydropyridine site) Eurofins-Cerep binding assay; parameters: incubation time 90 min, incubation temperature RT, ligand concentration 0.1 nM; conditions: rat cerebral cortex (source of protein), probe [3H]nitrendipine (0.1 nM), compound concentration 10 uM, read-out: % Inhibition of Control Specific Binding (Mean n=2)
[23] = target: MAO-A (amine oxidase [flavin-containing] A) (Rattus norvegicus, UniProt P21396); test: MAO-A Eurofins-Cerep binding assay; parameters: incubation time 60 min, incubation temperature 37°C, ligand concentration 10 nM; conditions: rat cerebral cortex (source of protein), probe [3H]Ro 41-1049 (10 nM), compound concentration 10 uM, read-out: % Inhibition of Control Specific Binding (Mean n=2)
[24] = target: Beta-adrenergic receptor kinase 1 (Homo sapiens) (UniProt P25098); conditions: Compound concentration 1000.0 nM
[25] = target: Serine/threonine-protein kinase haspin (Homo sapiens) (UniProt Q8TF76); conditions: Compound concentration 1000.0 nM
[26] = target: Dual specificity mitogen-activated protein kinase kinase 3 (Homo sapiens) (UniProt P46734); conditions: Compound concentration 1000.0 nM
[27] = target: Interferon-induced, double-stranded RNA-activated protein kinase (Homo sapiens) (UniProt P19525); conditions: Compound concentration 1000.0 nM
[28] = target: Mitogen-activated protein kinase 6 (Homo sapiens) (UniProt Q16659); conditions: Compound concentration 1000.0 nM
[29] = target: Phosphatidylinositol 4-kinase beta (Homo sapiens) (UniProt Q9UBF8); conditions: Compound concentration 1000.0 nM
[30] = target: Serine/threonine-protein kinase SBK1 (Homo sapiens) (UniProt Q52WX2); conditions: Compound concentration 1000.0 nM
[31] = tested on: Tyrosine-protein kinase ABL1 (Homo sapiens), P00519 [H396P]; conditions: Compound concentration 1000.0 nM
[32] = target: Mast/stem cell growth factor receptor Kit (Homo sapiens) (UniProt P10721); conditions: Compound concentration 1000.0 nM
[33] = target: Mitogen-activated protein kinase 7 (Homo sapiens) (UniProt Q13164); conditions: Compound concentration 1000.0 nM
[34] = target: cAMP-dependent protein kinase catalytic subunit beta (Homo sapiens) (UniProt P22694); conditions: Compound concentration 1000.0 nM
[35] = target: Serine/threonine-protein kinase MRCK alpha (Homo sapiens) (UniProt Q5VT25); conditions: Compound concentration 1000.0 nM
[36] = target: Wee1-like protein kinase 2 (Homo sapiens) (UniProt P0C1S8); conditions: Compound concentration 1000.0 nM

Chain of Insulin receptor (Homo sapiens) (P06213 28-758 limits assumed): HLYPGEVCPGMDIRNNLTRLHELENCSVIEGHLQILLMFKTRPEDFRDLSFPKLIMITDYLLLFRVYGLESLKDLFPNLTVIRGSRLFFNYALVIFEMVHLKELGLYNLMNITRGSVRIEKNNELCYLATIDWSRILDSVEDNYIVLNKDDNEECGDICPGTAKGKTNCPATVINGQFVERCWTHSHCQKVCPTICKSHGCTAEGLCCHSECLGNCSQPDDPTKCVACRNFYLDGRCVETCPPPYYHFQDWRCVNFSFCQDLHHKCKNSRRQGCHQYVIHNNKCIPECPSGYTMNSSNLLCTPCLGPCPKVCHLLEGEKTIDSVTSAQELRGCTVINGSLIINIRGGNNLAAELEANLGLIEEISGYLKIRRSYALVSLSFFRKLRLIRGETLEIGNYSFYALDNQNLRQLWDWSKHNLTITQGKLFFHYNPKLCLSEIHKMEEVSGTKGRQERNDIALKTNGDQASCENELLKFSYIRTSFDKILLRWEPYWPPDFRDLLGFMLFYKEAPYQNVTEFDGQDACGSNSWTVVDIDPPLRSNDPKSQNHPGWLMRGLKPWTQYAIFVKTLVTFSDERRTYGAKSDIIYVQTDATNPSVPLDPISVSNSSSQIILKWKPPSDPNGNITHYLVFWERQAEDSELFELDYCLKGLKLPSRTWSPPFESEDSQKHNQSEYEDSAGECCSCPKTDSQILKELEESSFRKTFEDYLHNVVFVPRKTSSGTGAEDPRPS
Chain of Insulin receptor (Homo sapiens) (P06213 763-1382 limits assumed): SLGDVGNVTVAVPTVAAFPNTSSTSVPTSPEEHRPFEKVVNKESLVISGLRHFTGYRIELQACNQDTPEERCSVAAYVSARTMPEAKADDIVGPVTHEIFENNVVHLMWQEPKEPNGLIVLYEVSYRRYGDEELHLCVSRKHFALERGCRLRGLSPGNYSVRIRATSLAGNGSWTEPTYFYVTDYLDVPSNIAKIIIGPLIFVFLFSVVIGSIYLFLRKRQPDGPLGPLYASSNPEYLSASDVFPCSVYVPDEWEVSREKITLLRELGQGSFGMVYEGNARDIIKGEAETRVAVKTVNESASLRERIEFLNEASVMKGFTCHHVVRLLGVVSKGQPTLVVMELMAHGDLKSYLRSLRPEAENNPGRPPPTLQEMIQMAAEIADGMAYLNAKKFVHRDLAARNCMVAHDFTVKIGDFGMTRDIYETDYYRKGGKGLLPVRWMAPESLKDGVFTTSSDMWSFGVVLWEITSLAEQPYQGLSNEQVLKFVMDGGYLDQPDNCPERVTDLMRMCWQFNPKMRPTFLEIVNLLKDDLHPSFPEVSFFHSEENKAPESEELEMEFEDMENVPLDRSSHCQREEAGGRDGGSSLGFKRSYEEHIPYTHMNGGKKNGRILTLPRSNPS
Chain of Serine/threonine-protein kinase MRCK alpha (Homo sapiens) (Q5VT25 whole entry): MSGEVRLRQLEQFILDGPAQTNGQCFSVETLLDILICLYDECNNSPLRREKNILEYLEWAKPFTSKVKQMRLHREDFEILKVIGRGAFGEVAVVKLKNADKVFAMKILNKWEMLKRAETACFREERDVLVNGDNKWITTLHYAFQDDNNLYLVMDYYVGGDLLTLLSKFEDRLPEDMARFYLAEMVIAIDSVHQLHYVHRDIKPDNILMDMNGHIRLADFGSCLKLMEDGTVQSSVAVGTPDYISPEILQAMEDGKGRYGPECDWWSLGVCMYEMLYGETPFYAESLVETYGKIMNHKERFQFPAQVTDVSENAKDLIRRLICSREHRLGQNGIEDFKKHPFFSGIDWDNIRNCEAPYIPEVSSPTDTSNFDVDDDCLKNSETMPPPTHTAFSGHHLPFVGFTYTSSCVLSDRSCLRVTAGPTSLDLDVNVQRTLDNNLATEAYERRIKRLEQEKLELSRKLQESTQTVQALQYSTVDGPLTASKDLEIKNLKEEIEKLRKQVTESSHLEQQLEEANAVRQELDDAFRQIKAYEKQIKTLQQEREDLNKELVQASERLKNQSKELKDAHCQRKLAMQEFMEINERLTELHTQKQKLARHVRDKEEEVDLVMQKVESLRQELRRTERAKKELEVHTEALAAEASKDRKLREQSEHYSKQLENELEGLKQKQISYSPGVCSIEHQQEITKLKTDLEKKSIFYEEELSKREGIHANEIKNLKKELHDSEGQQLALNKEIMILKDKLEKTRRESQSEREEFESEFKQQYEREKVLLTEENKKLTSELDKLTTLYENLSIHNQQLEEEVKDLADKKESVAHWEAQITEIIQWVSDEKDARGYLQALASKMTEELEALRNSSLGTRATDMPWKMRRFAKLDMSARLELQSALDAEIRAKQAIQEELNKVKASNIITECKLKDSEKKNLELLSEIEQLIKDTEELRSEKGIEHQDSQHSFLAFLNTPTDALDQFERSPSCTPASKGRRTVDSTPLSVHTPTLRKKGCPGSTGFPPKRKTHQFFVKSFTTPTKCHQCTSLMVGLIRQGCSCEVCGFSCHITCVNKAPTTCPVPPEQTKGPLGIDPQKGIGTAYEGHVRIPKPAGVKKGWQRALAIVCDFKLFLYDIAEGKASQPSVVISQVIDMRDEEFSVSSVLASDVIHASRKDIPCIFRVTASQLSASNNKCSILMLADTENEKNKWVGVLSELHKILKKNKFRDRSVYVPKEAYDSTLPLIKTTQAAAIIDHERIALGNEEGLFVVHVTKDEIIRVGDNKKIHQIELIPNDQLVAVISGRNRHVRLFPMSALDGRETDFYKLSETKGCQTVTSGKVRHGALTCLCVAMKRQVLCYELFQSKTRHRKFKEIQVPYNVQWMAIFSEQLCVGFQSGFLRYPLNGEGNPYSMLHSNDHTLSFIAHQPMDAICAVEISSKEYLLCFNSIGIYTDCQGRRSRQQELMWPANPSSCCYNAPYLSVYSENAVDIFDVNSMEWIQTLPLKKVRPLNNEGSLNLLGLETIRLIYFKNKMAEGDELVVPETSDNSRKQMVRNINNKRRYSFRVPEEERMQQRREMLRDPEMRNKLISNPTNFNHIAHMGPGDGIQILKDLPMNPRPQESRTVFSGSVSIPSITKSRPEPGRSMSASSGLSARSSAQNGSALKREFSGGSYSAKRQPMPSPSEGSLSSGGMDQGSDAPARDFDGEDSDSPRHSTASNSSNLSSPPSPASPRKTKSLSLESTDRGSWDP
Chain of Serine/threonine-protein kinase Sgk3 (Homo sapiens) (Q96BR1 whole entry, canonical isoform): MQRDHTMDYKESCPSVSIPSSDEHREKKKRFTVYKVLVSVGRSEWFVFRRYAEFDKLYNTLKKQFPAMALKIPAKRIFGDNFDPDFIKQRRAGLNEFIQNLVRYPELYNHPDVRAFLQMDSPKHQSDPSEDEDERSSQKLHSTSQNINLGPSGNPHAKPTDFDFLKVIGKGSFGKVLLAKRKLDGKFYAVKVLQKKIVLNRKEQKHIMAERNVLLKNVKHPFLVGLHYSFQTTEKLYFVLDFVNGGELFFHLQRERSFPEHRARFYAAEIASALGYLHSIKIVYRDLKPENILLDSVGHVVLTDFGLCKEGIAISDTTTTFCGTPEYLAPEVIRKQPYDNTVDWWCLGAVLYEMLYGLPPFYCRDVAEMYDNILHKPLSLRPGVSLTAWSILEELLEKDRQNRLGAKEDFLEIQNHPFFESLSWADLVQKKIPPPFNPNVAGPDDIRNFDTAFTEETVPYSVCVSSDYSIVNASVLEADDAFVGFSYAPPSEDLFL
Chain of Serine/threonine-protein kinase TAO1 (Homo sapiens) (Q7L7X3 whole entry): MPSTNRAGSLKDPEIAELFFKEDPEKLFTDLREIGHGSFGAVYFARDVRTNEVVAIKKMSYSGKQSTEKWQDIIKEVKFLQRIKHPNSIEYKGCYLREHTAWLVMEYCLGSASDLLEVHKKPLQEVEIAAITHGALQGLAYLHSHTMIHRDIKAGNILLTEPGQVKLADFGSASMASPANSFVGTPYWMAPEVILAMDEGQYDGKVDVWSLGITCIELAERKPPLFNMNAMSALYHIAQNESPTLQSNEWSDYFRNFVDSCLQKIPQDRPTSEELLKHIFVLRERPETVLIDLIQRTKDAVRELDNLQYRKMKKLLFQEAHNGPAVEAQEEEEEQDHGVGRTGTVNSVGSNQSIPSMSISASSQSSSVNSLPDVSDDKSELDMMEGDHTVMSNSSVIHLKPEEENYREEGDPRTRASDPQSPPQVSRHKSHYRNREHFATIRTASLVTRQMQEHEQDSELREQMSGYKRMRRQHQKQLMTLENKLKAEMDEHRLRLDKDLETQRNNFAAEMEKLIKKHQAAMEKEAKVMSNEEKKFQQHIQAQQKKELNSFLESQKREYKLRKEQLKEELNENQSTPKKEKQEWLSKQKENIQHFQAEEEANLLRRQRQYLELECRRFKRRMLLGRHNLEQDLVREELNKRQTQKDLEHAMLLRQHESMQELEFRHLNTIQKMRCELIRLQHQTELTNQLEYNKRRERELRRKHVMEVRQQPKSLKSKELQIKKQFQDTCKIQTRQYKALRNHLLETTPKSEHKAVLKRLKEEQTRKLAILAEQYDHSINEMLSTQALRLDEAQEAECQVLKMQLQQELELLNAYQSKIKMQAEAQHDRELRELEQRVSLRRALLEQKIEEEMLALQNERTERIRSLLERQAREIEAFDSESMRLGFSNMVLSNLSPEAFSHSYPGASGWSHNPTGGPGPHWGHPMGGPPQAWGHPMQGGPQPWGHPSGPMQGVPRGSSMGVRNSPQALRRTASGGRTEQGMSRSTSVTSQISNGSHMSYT
Chain of Calcium/calmodulin-dependent protein kinase kinase 1 (Homo sapiens) (Q8N5S9 whole entry, looked up): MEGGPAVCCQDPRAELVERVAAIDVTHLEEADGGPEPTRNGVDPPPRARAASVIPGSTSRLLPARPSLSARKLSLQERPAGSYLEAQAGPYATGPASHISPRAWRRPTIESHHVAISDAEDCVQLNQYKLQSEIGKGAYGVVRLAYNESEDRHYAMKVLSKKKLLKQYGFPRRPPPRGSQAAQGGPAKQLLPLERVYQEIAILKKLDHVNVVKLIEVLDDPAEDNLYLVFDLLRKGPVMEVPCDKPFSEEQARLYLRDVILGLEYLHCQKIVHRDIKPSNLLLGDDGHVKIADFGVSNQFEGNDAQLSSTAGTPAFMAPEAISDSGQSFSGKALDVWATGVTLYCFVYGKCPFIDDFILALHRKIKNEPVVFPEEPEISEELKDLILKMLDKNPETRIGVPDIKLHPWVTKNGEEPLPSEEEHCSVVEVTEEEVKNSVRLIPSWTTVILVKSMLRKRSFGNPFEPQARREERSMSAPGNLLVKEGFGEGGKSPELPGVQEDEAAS

Q: `CCCOc1ccc([C@@H]2[C@@H](C(=O)O)[C@H](c3ccc4c(c3)OCO4)CN2CC(=O)Nc2c(CC)cccc2CC)cc1` [A-1806262] was tested. Which residual activity [1] did it give?
A: The residual activity was 100%.

Q: And the residual activity [2]?
A: The residual activity was 62%.

Q: What about the residual activity [3] of the same compound?
A: The residual activity was 100%.

Q: And the residual activity [4]?
A: Its residual activity is 81%.

Q: And the residual activity [5]?
A: Its residual activity is 79%.

Q: What about the residual activity [6] of the same compound?
A: Its residual activity is 87%.

Q: What about the % Inhibition of Control Specific Binding (Mean n=2) [7] of the same compound?
A: The % Inhibition of Control Specific Binding (Mean n=2) was -13.4%.

Q: And the residual activity [8]?
A: Its residual activity is 100%.

Q: What about the residual activity [9] of the same compound?
A: Its residual activity is 97%.

Q: What about the % Inhibition of Control Specific Binding (Mean n=2) [10] of the same compound?
A: The % Inhibition of Control Specific Binding (Mean n=2) was 1.5%.

Q: What about the % Inhibition of Control Specific Binding (Mean n=2) [11] of the same compound?
A: The % Inhibition of Control Specific Binding (Mean n=2) was 13.4%.

Q: And the residual activity [12]?
A: The residual activity was 89%.

Q: What about the residual activity [13] of the same compound?
A: The residual activity was 83%.

Q: And the residual activity [14]?
A: The residual activity was 95%.

Q: And the residual activity [15]?
A: Its residual activity is 81%.

Q: And the residual activity [16]?
A: Its residual activity is 100%.

Q: And the residual activity [17]?
A: Its residual activity is 86%.

Q: What about the residual activity [18] of the same compound?
A: Its residual activity is 98%.

Q: What about the residual activity [19] of the same compound?
A: The residual activity was 69%.

Q: What about the residual activity [20] of the same compound?
A: The residual activity was 73%.

Q: What about the residual activity [21] of the same compound?
A: Its residual activity is 100%.

Q: What about the inhibition at 90 min, 10 µM [22] of the same compound?
A: Its inhibition at 90 min, 10 µM is 27.2%.

Q: What about the inhibition at 60 min, 10 µM [23] of the same compound?
A: The inhibition at 60 min, 10 µM was 9.9%.

Q: What about the residual activity [24] of the same compound?
A: Its residual activity is 89%.

Q: And the residual activity [25]?
A: Its residual activity is 99%.

Q: What about the residual activity [26] of the same compound?
A: The residual activity was 82%.

Q: And the residual activity [27]?
A: The residual activity was 100%.

Q: What about the residual activity [28] of the same compound?
A: The residual activity was 59%.

Q: What about the residual activity [29] of the same compound?
A: Its residual activity is 100%.

Q: What about the residual activity [30] of the same compound?
A: Its residual activity is 81%.

Q: And the residual activity [31]?
A: Its residual activity is 90%.

Q: And the residual activity [32]?
A: The residual activity was 90%.

Q: And the residual activity [33]?
A: The residual activity was 93%.

Q: And the residual activity [34]?
A: The residual activity was 100%.

Q: What about the residual activity [35] of the same compound?
A: Its residual activity is 90%.

Q: What about the residual activity [36] of the same compound?
A: Its residual activity is 87%.

Q: Which residual activity [1] does the source give for `CCCOc1ccc([C@H]2[C@H](C(=O)O)[C@@H](c3ccc4c(c3)OCO4)CN2CC(=O)Nc2c(CC)cccc2CC)cc1` [A-192621] here?
A: Its residual activity is 84%.

Q: And the residual activity [2]?
A: The residual activity was 88%.

Q: What about the residual activity [3] of the same compound?
A: The residual activity was 86%.

Q: And the residual activity [4]?
A: The residual activity was 59%.

Q: And the residual activity [5]?
A: The residual activity was 98%.

Q: And the residual activity [6]?
A: Its residual activity is 65%.

Q: What about the % Inhibition of Control Specific Binding (Mean n=2) [7] of the same compound?
A: The % Inhibition of Control Specific Binding (Mean n=2) was -12.4%.

Q: And the residual activity [8]?
A: The residual activity was 100%.

Q: What about the residual activity [9] of the same compound?
A: The residual activity was 96%.

Q: What about the % Inhibition of Control Specific Binding (Mean n=2) [10] of the same compound?
A: Its % Inhibition of Control Specific Binding (Mean n=2) is 7.4%.

Q: And the % Inhibition of Control Specific Binding (Mean n=2) [11]?
A: Its % Inhibition of Control Specific Binding (Mean n=2) is -2.8%.

Q: And the residual activity [12]?
A: The residual activity was 74%.

Q: And the residual activity [13]?
A: The residual activity was 87%.

Q: And the residual activity [14]?
A: Its residual activity is 92%.

Q: And the residual activity [15]?
A: Its residual activity is 86%.

Q: And the residual activity [16]?
A: The residual activity was 90%.

Q: And the residual activity [17]?
A: The residual activity was 73%.

Q: What about the residual activity [18] of the same compound?
A: The residual activity was 71%.

Q: What about the residual activity [19] of the same compound?
A: Its residual activity is 63%.

Q: What about the residual activity [20] of the same compound?
A: Its residual activity is 72%.

Q: What about the residual activity [21] of the same compound?
A: The residual activity was 93%.

Q: What about the inhibition at 90 min, 10 µM [22] of the same compound?
A: The inhibition at 90 min, 10 µM was 30.3%.

Q: And the inhibition at 60 min, 10 µM [23]?
A: The inhibition at 60 min, 10 µM was 7.9%.

Q: What about the residual activity [24] of the same compound?
A: The residual activity was 51%.

Q: What about the residual activity [25] of the same compound?
A: Its residual activity is 62%.

Q: What about the residual activity [26] of the same compound?
A: Its residual activity is 60%.

Q: What about the residual activity [27] of the same compound?
A: Its residual activity is 100%.

Q: What about the residual activity [28] of the same compound?
A: The residual activity was 92%.

Q: What about the residual activity [29] of the same compound?
A: Its residual activity is 75%.

Q: And the residual activity [30]?
A: The residual activity was 78%.

Q: What about the residual activity [31] of the same compound?
A: Its residual activity is 81%.

Q: And the residual activity [32]?
A: Its residual activity is 85%.

Q: And the residual activity [33]?
A: The residual activity was 97%.

Q: What about the residual activity [34] of the same compound?
A: The residual activity was 87%.

Q: What about the residual activity [35] of the same compound?
A: Its residual activity is 94%.

Q: And the residual activity [36]?
A: Its residual activity is 85%.
